Patent US10800791B2, “Triazole ACC inhibitors and uses thereof” (Gilead Apollo, LLC, priority 2015, dated 2020)
≈ marks a conversion by molar mass, not a printed value. Where two headings read alike, the source gives them in different places.

What was measured:
[1] = molecular target: human (hACC2) (Homo sapiens, UniProt O00763); assay: In vitro ACC inhibition assay (ADP-Glo), hACC2; type: biochemical; conditions: 5 nM ACC2, 20 μM ATP, 20 μM acetyl-CoA
Procedure: The detailed procedure is as follows. […] 10 μL ADP glo reagent was added. […] 20 μL kinase detection reagent was added.

[2] = molecular target: fungal (fACC2) (UniProt Q00955); conditions: read-out: fACC2 (in vitro ACC2 Inhibition Assay, IC50), ADP-Glo, 5 nM ACC2, 20 μM ATP, 20 μM acetyl-CoA
[3] = system: C. albicans; assay: Antifungal Activity Assay (broth microtiter MIC), C. albicans; type: cell-based, Candida albicans; conditions: Candida albicans, ATCC90028, 48 h, ATCC 90028, 3 replicates, MIC recorded at 48 h, read-out: MIC, C. albicans ATCC 90028
Procedure: (§1) Compounds of the present invention were evaluated in an Antifungal Activity Assay. An exemplary procedure for the assay, which measures the susceptibility of various Candida species to antifungal compounds, follows. Compounds to be tested (including fluconazole and amphotericin B) were dissolved in DMSO to obtain a solution having a concentration of 1 mg/mL. These stock solutions were sterile filtered using a 0.22 um nylon syringe filter, then diluted in sterile water to achieve a final concentration of 128 μg/mL.
(§2) All species were grown from frozen stock by directly plating on to freshly prepared Sabouraud Dextrose agar (BD, Difco) and incubated overnight in ambient air at 35° C. for 24 h. A direct suspension was prepared in RPMI 1640+MOPS (Lonza, Biowhittaker) by taking individual colonies from the overnight cultures using sterile swabs soaked in sterile saline. The concentration of the suspension was determined using pre-determined standard curves. These suspensions were then diluted down to 5×10^3 CFU/mL to achieve a final concentration of 2.5×10^3 CFU/mL once added to the microtiter plate as per CLSI guidelines (M27-A3, Vol. 28 No. 14).
(§3) Broth microtiter MIC challenge plates were prepared following CLSI guidelines (M27-A3, Vol. 28 No. 14). The original CLSI guidelines focused on reading Candida MICs after 48 h of incubation. As reading after only 24 h offers a clear advantage of patient care, QC limits are being established for all drugs at 24 h. That being said there are no known interpretive breakpoints for amphotericin B at 24 h and the current fluconazole interpretive breakpoints are based on a 48 h reading. The MICs for the test compounds were recorded at 48 h. All MIC determinations were achieved by visually comparing the growth found in the antibiotic challenged wells to that of the growth control.

[4] = system: C. krusei; assay: Antifungal Activity Assay (broth microtiter MIC), C. krusei; type: cell-based, Candida krusei; conditions: Pichia kudriavzevii, ATCC6258, 48 h, ATCC 6258, 3 replicates, MIC recorded at 48 h, read-out: MIC, C. krusei ATCC 6258
Procedure: as §1, §2, §3

[5] = system: C. parapsilosis; assay: Antifungal Activity Assay (broth microtiter MIC), C. parapsilosis; type: cell-based, Candida parapsilosis; conditions: Lodderomyces parapsilosis, ATCC22019, 48 h, ATCC 22019, 3 replicates, MIC recorded at 48 h, read-out: MIC, C. parapsilosis ATCC 22019
Procedure: as §1, §2, §3

fungal (fACC2), sequence (Q00955 whole entry): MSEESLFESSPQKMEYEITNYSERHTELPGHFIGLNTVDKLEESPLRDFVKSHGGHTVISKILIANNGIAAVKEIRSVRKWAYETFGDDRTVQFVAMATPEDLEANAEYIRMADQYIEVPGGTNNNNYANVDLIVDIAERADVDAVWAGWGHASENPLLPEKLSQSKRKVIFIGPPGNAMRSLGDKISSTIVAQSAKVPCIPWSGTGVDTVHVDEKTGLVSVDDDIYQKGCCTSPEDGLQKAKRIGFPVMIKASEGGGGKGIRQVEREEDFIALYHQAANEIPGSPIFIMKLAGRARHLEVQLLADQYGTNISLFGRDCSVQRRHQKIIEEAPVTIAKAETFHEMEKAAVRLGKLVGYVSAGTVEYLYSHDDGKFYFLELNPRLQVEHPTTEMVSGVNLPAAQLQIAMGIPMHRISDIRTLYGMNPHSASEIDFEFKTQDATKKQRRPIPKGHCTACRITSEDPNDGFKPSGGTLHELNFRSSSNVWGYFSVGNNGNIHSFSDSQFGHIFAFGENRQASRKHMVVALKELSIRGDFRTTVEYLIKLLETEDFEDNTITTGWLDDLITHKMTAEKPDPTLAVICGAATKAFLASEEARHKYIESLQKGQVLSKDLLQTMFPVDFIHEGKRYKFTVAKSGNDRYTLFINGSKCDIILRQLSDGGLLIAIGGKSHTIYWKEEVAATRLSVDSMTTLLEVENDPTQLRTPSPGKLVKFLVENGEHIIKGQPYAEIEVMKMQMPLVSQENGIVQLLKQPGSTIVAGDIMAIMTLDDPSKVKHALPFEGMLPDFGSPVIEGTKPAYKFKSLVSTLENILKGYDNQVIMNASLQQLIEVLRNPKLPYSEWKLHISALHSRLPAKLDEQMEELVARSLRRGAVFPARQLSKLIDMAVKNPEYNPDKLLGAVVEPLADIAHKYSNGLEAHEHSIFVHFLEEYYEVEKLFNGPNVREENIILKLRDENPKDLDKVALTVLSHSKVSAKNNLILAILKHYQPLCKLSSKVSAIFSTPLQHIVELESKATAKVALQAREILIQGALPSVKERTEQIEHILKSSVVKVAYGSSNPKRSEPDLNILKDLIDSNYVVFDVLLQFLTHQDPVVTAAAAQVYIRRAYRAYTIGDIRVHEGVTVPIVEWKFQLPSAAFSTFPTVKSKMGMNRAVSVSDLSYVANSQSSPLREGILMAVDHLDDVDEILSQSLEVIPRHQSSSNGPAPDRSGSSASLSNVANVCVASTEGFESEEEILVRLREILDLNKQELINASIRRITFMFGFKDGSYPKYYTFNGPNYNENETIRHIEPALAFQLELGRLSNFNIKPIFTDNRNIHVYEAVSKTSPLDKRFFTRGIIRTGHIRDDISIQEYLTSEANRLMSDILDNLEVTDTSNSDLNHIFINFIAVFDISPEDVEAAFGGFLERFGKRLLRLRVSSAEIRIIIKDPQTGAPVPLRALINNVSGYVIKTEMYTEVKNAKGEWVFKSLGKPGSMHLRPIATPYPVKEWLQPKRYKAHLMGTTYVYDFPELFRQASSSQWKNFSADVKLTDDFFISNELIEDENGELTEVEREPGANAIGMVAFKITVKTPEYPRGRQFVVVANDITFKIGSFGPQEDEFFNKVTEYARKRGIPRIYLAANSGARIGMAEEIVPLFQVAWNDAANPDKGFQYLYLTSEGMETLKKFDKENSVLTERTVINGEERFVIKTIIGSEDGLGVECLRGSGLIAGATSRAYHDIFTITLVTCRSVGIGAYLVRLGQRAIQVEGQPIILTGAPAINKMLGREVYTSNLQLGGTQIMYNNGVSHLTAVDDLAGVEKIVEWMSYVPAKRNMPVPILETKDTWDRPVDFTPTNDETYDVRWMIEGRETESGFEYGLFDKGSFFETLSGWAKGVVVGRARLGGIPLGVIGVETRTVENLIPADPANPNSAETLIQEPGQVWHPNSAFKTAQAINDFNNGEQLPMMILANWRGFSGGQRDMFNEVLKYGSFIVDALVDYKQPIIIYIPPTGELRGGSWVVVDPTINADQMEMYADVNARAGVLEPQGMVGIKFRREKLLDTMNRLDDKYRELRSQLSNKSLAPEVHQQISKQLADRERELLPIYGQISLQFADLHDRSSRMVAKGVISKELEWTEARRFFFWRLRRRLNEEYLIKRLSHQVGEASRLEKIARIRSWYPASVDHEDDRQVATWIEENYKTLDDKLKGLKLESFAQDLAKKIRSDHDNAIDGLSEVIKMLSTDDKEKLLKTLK
human (hACC2), sequence (O00763 whole entry): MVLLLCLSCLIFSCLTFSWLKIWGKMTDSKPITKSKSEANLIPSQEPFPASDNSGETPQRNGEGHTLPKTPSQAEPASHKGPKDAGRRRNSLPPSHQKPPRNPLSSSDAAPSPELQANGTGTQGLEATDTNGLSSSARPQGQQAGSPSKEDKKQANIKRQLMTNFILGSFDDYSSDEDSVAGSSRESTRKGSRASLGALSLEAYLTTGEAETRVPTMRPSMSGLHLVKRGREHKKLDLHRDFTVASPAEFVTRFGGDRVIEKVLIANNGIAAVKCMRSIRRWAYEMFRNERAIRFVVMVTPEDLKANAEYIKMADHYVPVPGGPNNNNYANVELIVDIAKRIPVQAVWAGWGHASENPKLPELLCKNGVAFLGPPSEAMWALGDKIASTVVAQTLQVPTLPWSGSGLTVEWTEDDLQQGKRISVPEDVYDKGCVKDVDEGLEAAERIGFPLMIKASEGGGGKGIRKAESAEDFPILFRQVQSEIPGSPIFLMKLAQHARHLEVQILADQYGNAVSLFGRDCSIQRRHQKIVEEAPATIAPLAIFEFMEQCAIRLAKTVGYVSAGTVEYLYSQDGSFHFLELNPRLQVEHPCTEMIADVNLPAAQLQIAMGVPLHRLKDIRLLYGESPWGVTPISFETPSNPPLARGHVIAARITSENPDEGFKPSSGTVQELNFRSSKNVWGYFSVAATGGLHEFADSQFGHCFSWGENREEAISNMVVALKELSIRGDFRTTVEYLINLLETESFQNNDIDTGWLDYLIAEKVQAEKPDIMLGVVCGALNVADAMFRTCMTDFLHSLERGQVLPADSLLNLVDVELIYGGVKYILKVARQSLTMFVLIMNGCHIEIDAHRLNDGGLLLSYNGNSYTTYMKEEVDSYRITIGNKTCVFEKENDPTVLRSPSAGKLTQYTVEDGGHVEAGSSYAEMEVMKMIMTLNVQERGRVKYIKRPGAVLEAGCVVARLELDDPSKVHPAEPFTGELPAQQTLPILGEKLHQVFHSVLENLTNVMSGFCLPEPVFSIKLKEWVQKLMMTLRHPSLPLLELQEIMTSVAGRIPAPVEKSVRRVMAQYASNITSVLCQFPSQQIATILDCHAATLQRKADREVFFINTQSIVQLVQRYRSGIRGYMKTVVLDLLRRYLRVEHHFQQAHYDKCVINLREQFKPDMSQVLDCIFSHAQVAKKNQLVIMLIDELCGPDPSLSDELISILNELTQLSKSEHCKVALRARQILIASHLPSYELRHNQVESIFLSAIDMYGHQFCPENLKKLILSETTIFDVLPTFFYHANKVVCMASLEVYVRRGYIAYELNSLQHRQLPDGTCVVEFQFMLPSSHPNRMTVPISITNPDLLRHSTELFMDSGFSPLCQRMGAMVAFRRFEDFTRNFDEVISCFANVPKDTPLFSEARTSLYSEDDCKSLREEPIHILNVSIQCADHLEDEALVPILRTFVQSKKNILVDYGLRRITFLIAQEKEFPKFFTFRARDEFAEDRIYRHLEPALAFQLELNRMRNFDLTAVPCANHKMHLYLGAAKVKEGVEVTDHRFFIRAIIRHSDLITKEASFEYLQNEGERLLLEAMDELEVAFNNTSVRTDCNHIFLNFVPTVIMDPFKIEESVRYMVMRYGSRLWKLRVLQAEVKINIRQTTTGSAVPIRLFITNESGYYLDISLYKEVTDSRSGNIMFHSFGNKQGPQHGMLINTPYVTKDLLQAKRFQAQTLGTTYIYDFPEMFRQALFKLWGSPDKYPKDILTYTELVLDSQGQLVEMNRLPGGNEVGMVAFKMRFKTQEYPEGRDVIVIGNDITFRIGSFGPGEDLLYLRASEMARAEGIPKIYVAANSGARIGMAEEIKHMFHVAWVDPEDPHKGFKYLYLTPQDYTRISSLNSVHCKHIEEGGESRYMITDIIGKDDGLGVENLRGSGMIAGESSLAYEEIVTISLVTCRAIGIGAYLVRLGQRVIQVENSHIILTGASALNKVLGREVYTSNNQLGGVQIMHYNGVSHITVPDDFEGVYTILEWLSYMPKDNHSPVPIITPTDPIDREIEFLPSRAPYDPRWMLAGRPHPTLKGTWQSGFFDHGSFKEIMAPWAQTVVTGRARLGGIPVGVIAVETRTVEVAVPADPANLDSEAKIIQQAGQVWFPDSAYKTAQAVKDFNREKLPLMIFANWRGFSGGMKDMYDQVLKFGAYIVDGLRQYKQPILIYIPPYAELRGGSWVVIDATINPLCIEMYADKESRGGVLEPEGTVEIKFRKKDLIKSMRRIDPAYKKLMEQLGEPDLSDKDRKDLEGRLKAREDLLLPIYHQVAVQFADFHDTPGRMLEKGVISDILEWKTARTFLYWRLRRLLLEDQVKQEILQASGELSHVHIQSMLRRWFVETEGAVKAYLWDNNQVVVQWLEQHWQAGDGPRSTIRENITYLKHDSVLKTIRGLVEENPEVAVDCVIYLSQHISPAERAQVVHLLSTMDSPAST

Row | IC50 ([1]; Table 2a) [nM] | MIC ([3]; Table 3a) [µg/mL] | MIC ([4]; Table 3a) [µg/mL] | MIC ([5]; Table 3a) [µg/mL] | Compound | IC50 ([1]; Table 2b, additional results) [nM] | IC50 ([2]; Table 2b, additional results) [nM] | MIC ([3]; Table 3b (additional results)) [µg/mL] | MIC ([4]; Table 3b (additional results)) [µg/mL] | MIC ([5]; Table 3b (additional results)) [µg/mL] | IC50 ([2]; Table 2a) [nM]
1 |  |  |  |  | CCc1ccc(F)cc1[C@H](Cn1c(=O)n(C(C)(C)C(=O)NC(C)C)c(=O)c2c(C)c(-n3nccn3)sc21)OCC(C)(C)O (stereo in doubt) [Compound I-240] | 10 to 40 | 1 to 5 | 1.01 to 2 (≈ 1.64 to 3.25 µM) | > 4.01 | 2.01 to 4 (≈ 3.27 to 6.51 µM) | 
2 |  |  |  |  | CCc1ccc(F)cc1[C@@H](Cn1c(=O)n(C(C)(C)C(=O)NC(C)C)c(=O)c2c(C)c(-n3nccn3)sc21)OCC(C)(C)O (stereo in doubt) [Compound I-241] | > 40 | 5 to 10 | 1.01 to 2 (≈ 1.64 to 3.25 µM) | > 4.01 | 2.01 to 4 (≈ 3.27 to 6.51 µM) | 
3 | 5 to 10 | 0.25 to 1 (≈ 0.437 to 1.75 µM) | 0.25 to 1 (≈ 0.437 to 1.75 µM) | 1.1 to 2 (≈ 1.92 to 3.5 µM) | [2H]C([2H])([2H])Oc1ccccc1[C@H](Cn1c(=O)n(C(C)(C)C(N)=O)c(=O)c2c(C)c(-n3nccn3)sc21)OC1CCOCC1 [Compound I-92] | 5 to 10 |  | 0.25 to 1 (≈ 0.437 to 1.75 µM) | 1.01 to 2 (≈ 1.77 to 3.5 µM) | 2.01 to 4 (≈ 3.52 to 7 µM) | 
4 | 5 to 10 | 2.1 to 4 (≈ 3.85 to 7.33 µM) | 2.1 to 4 (≈ 3.85 to 7.33 µM) | > 4.1 | COc1ccc(F)cc1[C@H](Cn1c(=O)n(C(C)(C)C(=O)O)c(=O)c2c(C)c(-n3nccn3)sc21)OC(C)C [Compound I-93] | 5 to 10 |  | 2.01 to 4 (≈ 3.68 to 7.33 µM) | 1.01 to 2 (≈ 1.85 to 3.67 µM) | > 4.01 | 
5 | 1 to 5 | 0.25 to 1 (≈ 0.447 to 1.79 µM) | 2.1 to 4 (≈ 3.75 to 7.15 µM) | 2.1 to 4 (≈ 3.75 to 7.15 µM) | COc1ccc(F)cc1[C@H](Cn1c(=O)n(C(C)(C)C(=O)O)c(=O)c2c(C)c(-n3nccn3)sc21)OCC(C)C [Compound I-94] | 1 to 5 |  | 2.01 to 4 (≈ 3.59 to 7.15 µM) | 2.01 to 4 (≈ 3.59 to 7.15 µM) | > 4.01 | 
6 | 5 to 10 | 1.1 to 2 (≈ 1.79 to 3.25 µM) | 1.1 to 2 (≈ 1.79 to 3.25 µM) | 1.1 to 2 (≈ 1.79 to 3.25 µM) | COc1ccc(F)cc1[C@H](Cn1c(=O)n(C(C)(C)C(=O)N2CC(O)C2)c(=O)c2c(C)c(-n3nccn3)sc21)OCC(C)C [Compound I-95] | 5 to 10 |  | 2.01 to 4 (≈ 3.27 to 6.51 µM) | 1.01 to 2 (≈ 1.64 to 3.25 µM) | 2.01 to 4 (≈ 3.27 to 6.51 µM) | 

Row | Compound | IC50 ([1]; Table 2a) [nM] | MIC ([3]; Table 3a) [µg/mL] | MIC ([4]; Table 3a) [µg/mL] | MIC ([5]; Table 3a) [µg/mL] | IC50 ([1]; Table 2b, additional results) [nM] | IC50 ([2]; Table 2b, additional results) [nM] | MIC ([3]; Table 3b (additional results)) [µg/mL] | MIC ([4]; Table 3b (additional results)) [µg/mL] | MIC ([5]; Table 3b (additional results)) [µg/mL] | IC50 ([2]; Table 2a) [nM]
7 | COCCO[C@@H](Cn1c(=O)n([C@@H](C)C(=O)NC(C)C)c(=O)c2c(C)c(-n3nccn3)sc21)c1cc(F)ccc1OC [Compound I-83, (S)-2-(1-((R)-2-(5-fluoro-2-methoxyphenyl)-2-(2-methoxy-ethoxy)ethyl)-5-methyl-2,4-dioxo-6-(2H-1,2,3-triazol-2-yl)-1,4-dihydrothieno[2,3-d]pyrimidin-3(2H)-yl)-N-isopropylpropanamide] | > 40 | 2.1 to 4 (≈ 3.57 to 6.8 µM) | 2.1 to 4 (≈ 3.57 to 6.8 µM) | 2.1 to 4 (≈ 3.57 to 6.8 µM) | > 40 | 1 to 5 | > 4.01 | 2.01 to 4 (≈ 3.41 to 6.8 µM) | 1.01 to 2 (≈ 1.72 to 3.4 µM) | 1 to 5
8 | COc1ccccc1[C@H](Cn1c(=O)n(C(C)(C)C(=O)O)c(=O)c2c(C)c(-n3nccn3)sc21)OC1CCOCC1 [Compound I-96] | 1 to 5 | 2.1 to 4 (≈ 3.69 to 7.02 µM) | 2.1 to 4 (≈ 3.69 to 7.02 µM) | 2.1 to 4 (≈ 3.69 to 7.02 µM) | 1 to 5 | 1 to 5 | 1.01 to 2 (≈ 1.77 to 3.51 µM) | 2.01 to 4 (≈ 3.53 to 7.02 µM) | 2.01 to 4 (≈ 3.53 to 7.02 µM) | 1 to 5
9 | COc1ccc(F)cc1[C@H](Cn1c(=O)n(C(C)(C)C(=O)NC(C)C)c(=O)c2c(C)c(-n3nccn3)sc21)OCC(C)=O [Compound I-97] | 1 to 5 | 0.25 to 1 (≈ 0.416 to 1.66 µM) | 0.06 to 0.24 (≈ 0.0999 to 0.4 µM) | 0.25 to 1 (≈ 0.416 to 1.66 µM) | 1 to 5 | 0.3 to 1 | 1.01 to 2 (≈ 1.68 to 3.33 µM) | 0.25 to 1 (≈ 0.416 to 1.66 µM) | 1.01 to 2 (≈ 1.68 to 3.33 µM) | 0.4 to 1
